Laboratory results: patent publication US10745346B2, “Agonists of protein tyrosine phosphatase SHP-1” (priority 2015, dated 2020)

Legend:
[1] = tested on: PLC5 cells (a hepatocellular carcinoma cell line); test: Cytotoxicity, MTT cell viability assay; type: cell-based; conditions: 72 h exposure
Protocol: PLC5 cells (a hepatocellular carcinoma cell line) were seeded at 5×10^3 cells per well in 96-well plates. Then, cells were exposed to SC derivatives at the indicated doses for 72 h. After that, cells were incubated with MTT (1 mg/ml) (Sigma-Aldrich, St. Louis, Mo.) for 2 h at 37° C. Cell viability was then assessed by measuring the absorbance at 570 nm using a microplate reader.

[2] = target: Recombinant SHP-1 protein (Homo sapiens, UniProt P29350); test: SHP-1 phosphatase activity assay (RediPlate 96 EnzChek Tyrosine Phosphatase Assay kit); type: biochemical; conditions: SC derivatives at 1 μM for 2 hr; recombinant SHP-1 25 ng; control DMSO = 100; mean±SD (N=3)
Chain of Recombinant SHP-1 protein (P29350 whole entry): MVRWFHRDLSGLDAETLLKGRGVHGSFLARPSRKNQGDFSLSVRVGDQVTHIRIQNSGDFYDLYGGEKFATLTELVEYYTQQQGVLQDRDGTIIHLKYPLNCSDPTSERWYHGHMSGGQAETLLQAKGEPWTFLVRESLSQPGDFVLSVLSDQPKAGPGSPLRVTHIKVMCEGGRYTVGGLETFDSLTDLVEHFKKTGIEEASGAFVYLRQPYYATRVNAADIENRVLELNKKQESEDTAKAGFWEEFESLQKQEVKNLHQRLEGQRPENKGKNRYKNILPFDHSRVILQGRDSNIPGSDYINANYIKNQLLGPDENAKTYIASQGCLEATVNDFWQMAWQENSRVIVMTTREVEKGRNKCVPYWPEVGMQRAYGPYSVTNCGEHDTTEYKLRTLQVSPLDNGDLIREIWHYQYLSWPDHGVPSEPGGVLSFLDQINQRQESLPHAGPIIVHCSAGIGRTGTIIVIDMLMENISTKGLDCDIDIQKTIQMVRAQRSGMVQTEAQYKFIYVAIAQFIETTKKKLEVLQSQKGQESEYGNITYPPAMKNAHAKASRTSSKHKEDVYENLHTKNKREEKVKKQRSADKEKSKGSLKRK
Summary of the method: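 Recombinant human SHP-1 (25 ng) was incubated for 2 h with compound at 1 μM, using a DMSO solvent control. Tyrosine phosphatase activity was then measured with the EnzChek kit by absorbance at 465 nm. Values are mean±SD, N=3.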

SMILES	SHP-1 Activity (% of control) [2]	IC50 [1] [nM]
N#Cc1ccc(Oc2ccc3cccc(NC(=O)Nc4ccc(Cl)c(C(F)(F)F)c4)c3c2)cc1Cl [compound 109, 1-(4-chloro-3-(trifluoromethyl)phenyl)-3-(7-(3-chloro-4-cyanophenoxy)naphthalen-1-yl)urea]	143.61 ± 5.36 % of control	2070
Cc1cc(Oc2ccc(C#N)cc2)ccc1NC(=O)Nc1ccc(Oc2ccc(C#N)cc2)cc1C [compound 90, 1,3-bis(4-(4-cyanophenoxy)-2-methylphenyl)urea]	95.78 ± 10.66 % of control	> 10000
N#Cc1ccc(Oc2cccc(NC(=O)Nc3ccc(Cl)c(C(F)(F)F)c3)c2)c(F)c1 [compound 80, 1-(4-chloro-3-(trifluoromethyl)phenyl)-3-(3-(4-cyano-2-fluorophenoxy)phenyl) urea]	X91.93 ± 8.09 % of control	1670
Cc1ccc(NC(=O)Nc2ccc(C)c(Oc3ccc(C#N)c(Cl)c3)c2)cc1Oc1ccc(C#N)nc1 [compound 103, 1-(3-(3-chloro-4-cyanophenoxy)-4-methylphenyl)-3-(3-((6-cyanopyridin-3-yl)oxy)51-4-methylphenyl)urea]	123.75 ± 32.58 % of control	190
N#Cc1ccc(Oc2cc(NC(=O)Nc3ccc(F)c(Oc4ccc(C#N)cc4)c3)ccc2F)cc1 [compound 112, 1,3-bis(3-(4-cyanophenoxy)-4-fluorophenyl)urea]	146.18 ± 14.74 % of control	490

Further lines, with some results ahead:

SHP-1 Activity (% of control) [2]	SMILES	IC50 [1] [nM]
233.37 ± 36.5 % of control	Cc1cc(Oc2cc(NC(=O)Nc3ccc(Cl)c(C(F)(F)F)c3)ccc2Cl)ccc1C#N [compound 175, 1-(4-chloro-3-(4-cyano-3-methylphenoxy)phenyl)-3-(4-chloro-3-(trifluoromethyl)phenyl)urea]	1200
198.37 ± 32.5 % of control	N#Cc1ccc(Oc2ccc(Cl)c(NC(=O)Nc3ccc(F)c(C(F)(F)F)c3)c2)cc1 [compound 143, 1-(2-chloro-5-(4-cyanophenoxy)phenyl)-3-(4-fluoro-3-(trifluoromethyl)phenyl)urea]	610
327.86 ± 34.79 % of control	Cc1ccc(NC(=O)Nc2cc(C(F)(F)F)cc(C(F)(F)F)c2)cc1Oc1ccc(C#N)cc1 [compound 131, 1-(3,5-bis(trifluoromethyl)phenyl)-3-(3-(4-cyanophenoxy)-4-methylphenyl) urea]	230
129.59 ± 59 % of control	C#Cc1cccc(NC(=O)Nc2ccc(F)c(Oc3ccc(C#N)cc3)c2)c1 [compound 150, 1-(3-(4-cyanophenoxy)-4-fluorophenyl)-3-(3-ethynylphenyl)urea]	2230
